Assay results reported in PMC10740270, “In-silico guided chemical exploration of KDM4A fragments hits” (Clinical Epigenetics, 2023).
Where “and” joins values, the source holds several entries; their conditions need not be identical. Equal values may be shown once.

T1: KDM4A (Homo sapiens, UniProt O75164)
T1 construct: encoding human KDM4A residues 1–350 with a GST-6xHis tag at the N-terminal; GST-6xHis (followed by TEV cleavage site) (N, cleaved yes); made in house; host or cells: T7 Express E. coli
T1 sequence (O75164 1-350): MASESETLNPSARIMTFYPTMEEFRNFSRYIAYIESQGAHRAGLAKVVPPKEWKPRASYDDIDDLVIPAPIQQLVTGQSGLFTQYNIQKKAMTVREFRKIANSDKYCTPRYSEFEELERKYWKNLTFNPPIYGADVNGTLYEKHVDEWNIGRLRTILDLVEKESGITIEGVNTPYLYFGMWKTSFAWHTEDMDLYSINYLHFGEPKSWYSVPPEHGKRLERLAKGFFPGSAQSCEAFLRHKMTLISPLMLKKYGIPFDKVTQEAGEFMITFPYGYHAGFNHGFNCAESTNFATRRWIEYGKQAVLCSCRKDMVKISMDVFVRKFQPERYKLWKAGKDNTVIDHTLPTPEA

B1: KDM4A (Homo sapiens) (protein)
chain: T1 sequence (O75164 1-350)

Experiments:
[1] = molecular target: T1, KDM4A; experiment: Enzymatic HTRF-based assay, inhibition of H3K9me3 peptide demethylation; assay type: biochemical; conditions: for inhibition at 50 µM: read-out: Inhibition at 50 μM; for IC50: HTRF, H3K9me3 peptide, 0.5 µM 2-OG, 400 nM KDM4A, ± standard error of fit
Method: The plasmid pGEX4T2-JMJD2A encoding human KDM4A residues 1–350 with a GST-6xHis tag at the N-terminal, followed by Tobacco Etch Virus (TEV) cleavage site, was used for protein expression. The plasmid was used to transform T7 Express E.coli competent cells. Cells were grown in LB media supplemented with ampicillin (100 µg/mL) at 37 °C until the OD600 reached a value around 0.4. Flasks were then cooled down and, after induction by 0.2 mM ITPG at OD600 = 0.8, bacteria were grown at 18 °C for 20 h. After centrifugation at 8000 g (20 min at 4 °C) the obtained pellets were suspended in lysis buffer (20 mM TRIS pH = 8, 0.3 M NaCl, 10 mM imidazole, 5% glycerol, 1 mM DTT, 10 µg/mL DNAse, 0.5 mg/mL lysozyme, 0.5 mM PMSF, 2 cOmplete™ EDTA-free Protease Inhibitor Cocktail, 5 mM MgCl2) and incubated at 25 °C for 1 h. Sonication (1 s ON and 1 s OFF) on ice for 7 min at 48% amplitude was performed. 0.1% Triton X-100 was added and the lysate was incubated on ice for 15 min in agitation. Soluble and insoluble phase were separated by centrifugation at 15,000 rpm, 4 °C for 30 min. Soluble phase was filtered using a 0.45 um syringe filter and directly loaded in 2 × 5 mL His-trap FF Crude column (GE Healthcare) previously equilibrated with loading buffer (20 mM TRIS, pH = 8, 0.3 M NaCl, 1 mM DTT, 10 mM imidazole, 5% glycerol). A linear gradient elution by 500 mM imidazole was done to elute bound KDM4A. In order to remove the GST-6xHis tag and imidazole excess, the eluted KDM4A was incubated with His-tagged TEV-protease (molar ratio 20:1) and dialyzed against 20 mM TRIS, pH = pH 7.5, 0.3 M NaCl, 1 mM DTT overnight at 4 °C. Tag free KDM4A was recovered reloading the dialyzed sample onto a His-trap column and collecting the flow-through. Size exclusion chromatography was used as final polishing step using a Superdex 200 grade 16/600 pg column (GE Healthcare) pre-equilibrated with 10 mM Hepes, pH = 7.5, 150 mM NaCl, 5% glycerol, 0.5 mM TCEP. Fractions containing KDM4A were pooled and concentrated to 50–100 µM, flash frozen in liquid nitrogen, and stored at − 80 °C. Protein concentration was measured by using the predicted molar extinction coefficient (ε280 = 73,800 M^−1 cm^−1), and the purity verified by SDS-PAGE resulted > 95%.
Enzymatic HTRF-based assay was run in two steps: enzymatic reaction and detection. Optimal conditions for both steps were determined by considering: plate format, time and temperature of incubation, substrate and DMSO concentrations.
Dimethyl sulfoxide (DMSO, Sigma-Aldrich D58791) final concentration was 1%. The reaction mixture was incubated for 2 h at 20 °C in ½ area 96 well plates (ref. 6002290 m, Perkin Elmer).
For the detection step, 40 μl of HTRF reagents, H3K9 me2-Eu(K) Ab (Cisbio Bioassays, 61KB2KAE) and Streptavidin XL-665 (Cisbio Bioassays, 610SAXLA), prepared in detection buffer following manufacturer’s instruction (Cisbio Assays, 62SDBRDD), were added to each well and incubated o/n at 20 °C. Fluorescence was measured with a TECAN Spark reader (Männedorf, Switzerland), by setting excitation wavelength at 320 nm and emission wavelength at 620 and 665 nm.
Automation was performed using Bravo (Agilent) liquid handling system. Validation of the assay was performed following NIH guidelines. 2,4-pyridinedicarboxylic acid monohydrate (2,4-PDCA, Sigma Aldrich P63395) was used as positive control at Imax 10 µM, and Z’ was determined on 9 independent experiments always giving a value > 0.5. The following reference compounds were used as internal controls in the screening plates: 2,4-Pyridinedicarboxylic Acid, 8-hydroxyquinoline-5-carboxylic acid, pyrido[3,4-d]pyrimidin-4(3H)-one, 3-(ethylsulfonyl)-N-(4-(pyridin-2-yl)thiazol-2-yl)benzamide, 3-(ethylsulfonyl)-N-(4-(pyridin-2-yl)thiazol-2-yl)benzamide, 3-(methylsulfonyl)-N-(4-(pyridin-2-yl)thiazol-2-yl)benzamide.

[2] = molecular target: T1, KDM4A; experiment: Bio-layer interferometry (BLI) binding to biotinylated KDM4A; conditions: for Kd: BLI, 1:1 Langmuir global fit, 25 °C, 5% DMSO; for LE: ligand efficiency score; for LE / LLE: method of ref 58; for LLE: lipophilic ligand efficiency score
From the text: (§1) Bio-layer interferometry (BLI) was then used to determine the equilibrium dissociation constant (KD) for the binding event. QC6352 inhibitor [52] and N-[(2-Chloro-6-fluorophenyl)methyl]-2-(2,5-dioxo-4-phenyl-4-propylimidazolidin-1-yl)-N-methylacetamide were used as positive and negative control, respectively. […] Binding was also confirmed by Saturation-Transfer Difference (STD) NMR experiments (Additional file 1: Fig. S5).
Bio-layer Interferometry experiments Bio-layer Interferometry was employed to determine the equilibrium dissociation constant (KD) for compounds binding to KDM4A, using a BLI Octet RED96e instrument (Fortebio–Sartorius). Biotinylated KDM4A samples (20 μg/ml) in 10 mM Hepes, pH = 7.5, 150 mM NaCl, 0.5 mM TCEP, 5% glycerol, and 5% DMSO, were loaded onto super streptavidin (SSA) coated biosensors for at least 500 s to saturate the sensors, and then quenched with 10 µg/ml of biocytin for 60 s. Loaded SSA biosensors were then equilibrated in buffer for at least 600 s prior to baseline collection. Association was followed for at least 120 s or until plateau was reached, in a concentration range of 15.6–500 nM for the positive control, and of 3–200 µM for the negative control, and compound 1 and its analogues. Dissociation was followed for at least 300 s. All steps were performed at 25 °C with an agitation speed of 1000 rpm. QC6352 inhibitor [52] and N-[(2-chloro-6-fluorophenyl)methyl]-2-(2,5-dioxo-4-phenyl-4-propylimidazolidin-1-yl)-N-methylacetamide were used as positive and negative control, respectively. Two or three independent experiments were performed for each tested compound.
KD values were estimated by globally fitting the BLI response intensity (nm) as a function of compound concentration (μM) with the Octet Data Analysis Software, using a 1:1 Langmuir binding model.
Biotinylated KDM4A was obtained as follows. 17 nmol of purified recombinant KDM4A was mixed with 17 nmol of NHS-PEG4-Biotin (ThermoFisher Scientific 21,330) in 10 mM Hepes, pH = 7.5, 150 mM NaCl, 0.5 mM TCEP, 5% Glycerol. The solution was incubated at 4 °C for 2 h. Excess biotin was removed by 2 ml Zeba™ Spin Desalting Columns (7 K MWCO).

[3] = molecular target: T1, KDM4A; experiment: STD-NMR binding experiment; conditions: 1:50 receptor-to-ligand ratio, 7.5 µM KDM4A
Method: as §1
STD-NMR experiments STD-NMR spectra were recorded at 800 MHz on Bruker spectrometer and 298 K in 20 mM NaPh, pH = 7.5, 150 mM NaCl, 0.5 mM TCEP, 8% D2O, using 7.5 µM of KDM4A and 20- or 50-fold excess of each compound. A series of Gaussian-shaped pulses of 0.025 s each was employed with a total saturation time for the protein envelope of 2 s. Off-resonance frequency of d = − 40 ppm and on-resonance frequency of d = 0.07 ppm (protein aliphatic signals region) were applied. Spectra were processed and analyzed using Bruker TopSpin software.
Suppl. Fig. S5: STD-NMR analysis of compound 1. […] (i) The 1D NMR reference spectrum of compound 1. (ii) The STD-NMR spectrum of compound 1 in the presence of KDM4A. The NMR spectrum was recorded at 1:50 receptor-to-ligand ratio.

[4] = substrate: O=C(O)CCC(=O)C(=O)O; experiment: purified protein, by the assay type; conditions: other: 2-OG titrated 50 µM to 0.01 µM, Michaelis-Menten plot

Molecule	inhibition at 50 µM [1]	Kd [2]	LE [2]	LLE [2]	IC50 [1]	Binding to KDM4A by STD-NMR [3]	Km [4]
O=C(O)c1ccnc(C(=O)NCc2ccccc2)c1 [Compound 6a, 2-(benzylcarbamoyl)isonicotinic acid]	< 50%	45 ± 1 µM	0.33	2.49	–	–	–
COC(=O)c1ccnc(C(=O)NCc2nc3ccccc3n2C)c1 [Compound 5d, Methyl 2-(((1-methyl-1H-benzo[d]imidazole-2-yl)methyl)carbamoyl)isonicotinate]	< 50%	55 ± 2 µM	0.24	1.88	–	–	–
CCCNC(=O)c1cc(C(=O)O)ccn1 [Compound 6c, 2-(Propylcarbamoyl)isonicotinic acid]	> 90%	10.7 ± 0.2 µM	0.48	4.18	41.6 µM	–	–
COC(=O)c1ccnc(C(=O)NCc2ccccc2)c1 [Compound 5a, Methyl 2-(benzylcarbamoyl)isonicotinate]	< 50%	–	–	–	–	–	–
CNC(=O)c1cc(C(=O)O)ccn1 [Compound 1, 2-(methylcarbamoyl)isonicotinic acid]	–	15 ± 0.16 µM	0.51	4.59	7.09 µM and 7.1 µM	detected compound 1 binding to KDM4A	–
O=C(O)c1ccnc(C(=O)NCc2cnco2)c1 [Compound 6b, 2-((Oxazol-5-ylmethyl)carbamoyl)isonicotinic acid]	> 90%	9.5 ± 0.08 µM	0.39	4.50	25.1 µM and 25 µM	–	–
B1	–	–	–	–	–	–	0.73 ± 0.16 µM
